{"source": "paper PMC10239507", "about": "“Development of allosteric and selective CDK2 inhibitors for contraception with negative cooperativity to cyclin binding” (Nature Communications, 2023)", "assay_in_all_cases": "biochemical", "key": {"[1]": {"biological_target": "T1, 371 kinases (kinase named in each endpoint) (Homo sapiens, UniProt Q16566)", "T1 construct": "purchased Reaction Biology", "T1 sequence (Q16566 whole entry)": "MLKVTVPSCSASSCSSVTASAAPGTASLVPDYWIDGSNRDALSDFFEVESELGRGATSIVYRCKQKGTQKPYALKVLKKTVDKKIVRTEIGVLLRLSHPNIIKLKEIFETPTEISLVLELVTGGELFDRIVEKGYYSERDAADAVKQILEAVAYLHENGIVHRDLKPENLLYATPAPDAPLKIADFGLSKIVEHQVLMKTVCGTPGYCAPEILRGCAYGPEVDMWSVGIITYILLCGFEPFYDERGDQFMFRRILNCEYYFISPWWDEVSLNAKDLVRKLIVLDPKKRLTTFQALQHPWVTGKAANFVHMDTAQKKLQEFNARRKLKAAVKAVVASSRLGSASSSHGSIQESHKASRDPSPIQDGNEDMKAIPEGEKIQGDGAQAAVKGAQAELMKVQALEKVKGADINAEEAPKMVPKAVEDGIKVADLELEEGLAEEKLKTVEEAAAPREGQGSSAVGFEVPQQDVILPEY", "details": "CAMK4"}, "[2]": {"biological_target": "T2, 371 kinases (kinase named in each endpoint) (Homo sapiens, UniProt P54764)", "T2 construct": "purchased Reaction Biology", "details": "EPHA4"}, "[3]": {"biological_target": "T3, 371 kinases (kinase named in each endpoint) (Homo sapiens, UniProt Q9BXA7)", "T3 construct": "purchased Reaction Biology", "details": "STK22D/TSSK1"}, "[4]": {"biological_target": "T4, 371 kinases (kinase named in each endpoint) (Homo sapiens, UniProt Q9Y4K4)", "T4 construct": "purchased Reaction Biology", "details": "KHS/MAP4K5"}, "[5]": {"biological_target": "T5, 371 kinases (kinase named in each endpoint) (Homo sapiens, UniProt Q9H2X6)", "T5 construct": "purchased Reaction Biology", "details": "HIPK2"}, "[6]": {"biological_target": "T6, 371 kinases (kinase named in each endpoint) (Homo sapiens, UniProt Q96KB5)", "T6 construct": "purchased Reaction Biology", "details": "PBK/TOPK"}, "[7]": {"biological_target": "T7, 371 kinases (kinase named in each endpoint) (Homo sapiens, UniProt Q9BYT3)", "T7 construct": "purchased Reaction Biology", "details": "STK33"}, "[8]": {"biological_target": "T8, 371 kinases (kinase named in each endpoint) (Homo sapiens, UniProt P22612)", "T8 construct": "purchased Reaction Biology", "details": "PKACG"}, "[9]": {"biological_target": "T9, 371 kinases (kinase named in each endpoint) (Homo sapiens, UniProt Q13464)", "T9 construct": "purchased Reaction Biology", "details": "ROCK1"}, "[10]": {"biological_target": "T10, 371 kinases (kinase named in each endpoint) (Homo sapiens, UniProt P22607)", "T10 construct": "purchased Reaction Biology", "details": "FGFR3"}, "[11]": {"biological_target": "T11, 371 kinases (kinase named in each endpoint) (Homo sapiens, UniProt Q13976)", "T11 construct": "purchased Reaction Biology", "details": "PKG1A"}, "[12]": {"biological_target": "T12, 371 kinases (kinase named in each endpoint) (Homo sapiens, UniProt Q9UK32)", "T12 construct": "purchased Reaction Biology", "details": "RSK4"}, "[13]": {"biological_target": "T13, 371 kinases (kinase named in each endpoint) (Homo sapiens, UniProt Q86V86)", "T13 construct": "purchased Reaction Biology", "details": "PIM3"}, "[14]": {"biological_target": "T14, 371 kinases (kinase named in each endpoint) (Homo sapiens, UniProt P10721)", "T14 construct": "purchased Reaction Biology", "details": "C-KIT"}, "[15]": {"biological_target": "T15, 371 kinases (kinase named in each endpoint) (Homo sapiens, UniProt P41743)", "T15 construct": "purchased Reaction Biology", "details": "PKCIOTA"}, "[16]": {"biological_target": "T16, 371 kinases (kinase named in each endpoint) (Homo sapiens, UniProt P07949)", "T16 construct": "purchased Reaction Biology", "details": "RET"}, "[17]": {"biological_target": "T17, 371 kinases (kinase named in each endpoint) (Homo sapiens, UniProt P78362)", "T17 construct": "purchased Reaction Biology", "details": "SRPK2"}, "[18]": {"biological_target": "T18, 371 kinases (kinase named in each endpoint) (Homo sapiens, UniProt Q15208)", "T18 construct": "purchased Reaction Biology", "details": "STK38/NDR1"}, "[19]": {"biological_target": "T19, 371 kinases (kinase named in each endpoint) (Homo sapiens, UniProt Q96NX5)", "T19 construct": "purchased Reaction Biology", "details": "CAMK1G"}, "[20]": {"biological_target": "T20, 371 kinases (kinase named in each endpoint) (Homo sapiens, UniProt Q15375)", "T20 construct": "purchased Reaction Biology", "details": "EPHA7"}, "[21]": {"biological_target": "T21, 371 kinases (kinase named in each endpoint) (Homo sapiens, UniProt P50750)", "T21 construct": "purchased Reaction Biology", "T21 sequence (P50750 whole entry)": "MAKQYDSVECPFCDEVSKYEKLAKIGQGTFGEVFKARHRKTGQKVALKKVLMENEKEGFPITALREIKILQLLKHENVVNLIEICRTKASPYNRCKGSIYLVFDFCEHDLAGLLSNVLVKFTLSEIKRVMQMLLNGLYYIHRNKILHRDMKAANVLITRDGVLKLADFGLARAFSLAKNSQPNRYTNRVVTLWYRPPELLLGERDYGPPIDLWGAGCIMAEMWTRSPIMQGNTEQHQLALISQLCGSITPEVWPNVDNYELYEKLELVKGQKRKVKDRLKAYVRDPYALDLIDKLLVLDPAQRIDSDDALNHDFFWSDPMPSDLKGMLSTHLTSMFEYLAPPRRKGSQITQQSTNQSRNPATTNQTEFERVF"}, "[22]": {"biological_target": "T22, 371 kinases (kinase named in each endpoint) (Homo sapiens, UniProt O94921)", "T22 construct": "purchased Reaction Biology", "details": "CDK14/CYCLIN Y (PFTK1)"}, "[23]": {"biological_target": "T23, 371 kinases (kinase named in each endpoint) (Homo sapiens, UniProt Q6DT37)", "T23 construct": "purchased Reaction Biology", "T23 sequence (Q6DT37 whole entry)": "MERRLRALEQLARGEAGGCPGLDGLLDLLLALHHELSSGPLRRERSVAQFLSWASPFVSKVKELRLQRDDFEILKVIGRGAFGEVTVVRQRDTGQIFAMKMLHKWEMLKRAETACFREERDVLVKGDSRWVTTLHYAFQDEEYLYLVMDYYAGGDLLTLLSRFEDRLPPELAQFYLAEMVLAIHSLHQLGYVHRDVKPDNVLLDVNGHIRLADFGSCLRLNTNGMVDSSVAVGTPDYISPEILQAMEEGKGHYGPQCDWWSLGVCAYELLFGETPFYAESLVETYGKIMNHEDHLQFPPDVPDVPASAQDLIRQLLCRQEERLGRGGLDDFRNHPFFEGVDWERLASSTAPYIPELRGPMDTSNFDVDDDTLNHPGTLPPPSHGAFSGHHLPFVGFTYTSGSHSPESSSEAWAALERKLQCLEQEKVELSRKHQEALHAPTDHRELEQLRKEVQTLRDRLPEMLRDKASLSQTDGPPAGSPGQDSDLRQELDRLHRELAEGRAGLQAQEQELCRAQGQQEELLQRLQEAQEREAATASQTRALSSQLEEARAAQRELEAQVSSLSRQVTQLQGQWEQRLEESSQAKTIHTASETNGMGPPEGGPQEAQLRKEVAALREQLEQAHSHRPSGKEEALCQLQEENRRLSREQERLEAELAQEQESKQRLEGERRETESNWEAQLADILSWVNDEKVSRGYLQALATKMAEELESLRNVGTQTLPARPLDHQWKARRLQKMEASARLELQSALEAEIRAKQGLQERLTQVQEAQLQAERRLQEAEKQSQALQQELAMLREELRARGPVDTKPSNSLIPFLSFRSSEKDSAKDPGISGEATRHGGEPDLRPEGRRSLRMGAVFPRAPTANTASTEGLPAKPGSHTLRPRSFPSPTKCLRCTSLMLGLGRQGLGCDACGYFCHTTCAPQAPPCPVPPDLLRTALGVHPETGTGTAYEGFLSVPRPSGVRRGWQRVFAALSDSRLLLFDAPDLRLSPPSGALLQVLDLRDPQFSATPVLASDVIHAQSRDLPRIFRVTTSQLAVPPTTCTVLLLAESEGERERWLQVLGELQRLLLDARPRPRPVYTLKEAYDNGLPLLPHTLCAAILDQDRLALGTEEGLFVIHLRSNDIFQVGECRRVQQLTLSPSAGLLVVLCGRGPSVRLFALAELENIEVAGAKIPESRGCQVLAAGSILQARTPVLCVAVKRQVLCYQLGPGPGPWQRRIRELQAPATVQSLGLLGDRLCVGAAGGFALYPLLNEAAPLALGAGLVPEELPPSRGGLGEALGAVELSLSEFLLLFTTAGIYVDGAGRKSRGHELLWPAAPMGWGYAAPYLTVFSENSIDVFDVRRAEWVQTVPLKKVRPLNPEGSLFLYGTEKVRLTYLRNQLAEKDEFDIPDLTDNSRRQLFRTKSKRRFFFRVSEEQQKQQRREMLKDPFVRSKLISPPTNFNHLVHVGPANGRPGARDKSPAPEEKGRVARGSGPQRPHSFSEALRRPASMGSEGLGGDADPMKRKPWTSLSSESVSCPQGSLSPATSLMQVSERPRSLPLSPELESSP", "details": "DMPK2"}, "[24]": {"biological_target": "T24, 371 kinases (kinase named in each endpoint) (Homo sapiens, UniProt Q12866)", "T24 construct": "purchased Reaction Biology", "T24 sequence (Q12866 21-999)": "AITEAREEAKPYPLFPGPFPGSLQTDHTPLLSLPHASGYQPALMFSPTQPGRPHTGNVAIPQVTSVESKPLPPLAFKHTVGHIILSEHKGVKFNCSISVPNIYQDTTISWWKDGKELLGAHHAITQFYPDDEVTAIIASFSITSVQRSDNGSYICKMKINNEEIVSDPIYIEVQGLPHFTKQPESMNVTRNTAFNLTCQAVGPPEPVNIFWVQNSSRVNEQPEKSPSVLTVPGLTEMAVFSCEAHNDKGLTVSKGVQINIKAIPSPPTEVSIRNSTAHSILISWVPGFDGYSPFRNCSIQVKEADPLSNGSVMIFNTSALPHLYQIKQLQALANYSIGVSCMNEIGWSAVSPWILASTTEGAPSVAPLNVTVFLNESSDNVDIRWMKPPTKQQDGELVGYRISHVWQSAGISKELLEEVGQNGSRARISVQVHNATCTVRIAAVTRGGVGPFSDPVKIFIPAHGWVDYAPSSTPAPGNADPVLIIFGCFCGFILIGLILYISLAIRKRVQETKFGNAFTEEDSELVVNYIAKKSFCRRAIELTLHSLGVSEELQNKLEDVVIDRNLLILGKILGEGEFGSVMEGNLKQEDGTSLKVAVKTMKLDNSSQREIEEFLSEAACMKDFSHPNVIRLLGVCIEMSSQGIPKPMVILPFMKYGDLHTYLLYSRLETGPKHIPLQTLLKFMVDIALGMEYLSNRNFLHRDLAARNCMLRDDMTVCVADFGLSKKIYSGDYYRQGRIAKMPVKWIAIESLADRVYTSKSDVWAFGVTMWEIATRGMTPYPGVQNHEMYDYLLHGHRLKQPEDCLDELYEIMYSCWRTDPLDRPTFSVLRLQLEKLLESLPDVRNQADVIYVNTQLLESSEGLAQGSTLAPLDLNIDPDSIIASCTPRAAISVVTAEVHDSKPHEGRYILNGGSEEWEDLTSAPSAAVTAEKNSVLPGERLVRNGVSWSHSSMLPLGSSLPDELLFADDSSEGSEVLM", "details": "C-MER"}, "[25]": {"biological_target": "T25, 371 kinases (kinase named in each endpoint) (Homo sapiens, UniProt Q02750)", "T25 construct": "purchased Reaction Biology", "details": "MEK1"}, "[26]": {"biological_target": "T26, 371 kinases (kinase named in each endpoint) (Homo sapiens, UniProt Q15303)", "T26 construct": "purchased Reaction Biology", "details": "ERBB4/HER4"}, "[27]": {"biological_target": "T27, 371 kinases (kinase named in each endpoint) (Homo sapiens, UniProt Q8WXR4)", "T27 construct": "purchased Reaction Biology", "T27 sequence (Q8WXR4 whole entry)": "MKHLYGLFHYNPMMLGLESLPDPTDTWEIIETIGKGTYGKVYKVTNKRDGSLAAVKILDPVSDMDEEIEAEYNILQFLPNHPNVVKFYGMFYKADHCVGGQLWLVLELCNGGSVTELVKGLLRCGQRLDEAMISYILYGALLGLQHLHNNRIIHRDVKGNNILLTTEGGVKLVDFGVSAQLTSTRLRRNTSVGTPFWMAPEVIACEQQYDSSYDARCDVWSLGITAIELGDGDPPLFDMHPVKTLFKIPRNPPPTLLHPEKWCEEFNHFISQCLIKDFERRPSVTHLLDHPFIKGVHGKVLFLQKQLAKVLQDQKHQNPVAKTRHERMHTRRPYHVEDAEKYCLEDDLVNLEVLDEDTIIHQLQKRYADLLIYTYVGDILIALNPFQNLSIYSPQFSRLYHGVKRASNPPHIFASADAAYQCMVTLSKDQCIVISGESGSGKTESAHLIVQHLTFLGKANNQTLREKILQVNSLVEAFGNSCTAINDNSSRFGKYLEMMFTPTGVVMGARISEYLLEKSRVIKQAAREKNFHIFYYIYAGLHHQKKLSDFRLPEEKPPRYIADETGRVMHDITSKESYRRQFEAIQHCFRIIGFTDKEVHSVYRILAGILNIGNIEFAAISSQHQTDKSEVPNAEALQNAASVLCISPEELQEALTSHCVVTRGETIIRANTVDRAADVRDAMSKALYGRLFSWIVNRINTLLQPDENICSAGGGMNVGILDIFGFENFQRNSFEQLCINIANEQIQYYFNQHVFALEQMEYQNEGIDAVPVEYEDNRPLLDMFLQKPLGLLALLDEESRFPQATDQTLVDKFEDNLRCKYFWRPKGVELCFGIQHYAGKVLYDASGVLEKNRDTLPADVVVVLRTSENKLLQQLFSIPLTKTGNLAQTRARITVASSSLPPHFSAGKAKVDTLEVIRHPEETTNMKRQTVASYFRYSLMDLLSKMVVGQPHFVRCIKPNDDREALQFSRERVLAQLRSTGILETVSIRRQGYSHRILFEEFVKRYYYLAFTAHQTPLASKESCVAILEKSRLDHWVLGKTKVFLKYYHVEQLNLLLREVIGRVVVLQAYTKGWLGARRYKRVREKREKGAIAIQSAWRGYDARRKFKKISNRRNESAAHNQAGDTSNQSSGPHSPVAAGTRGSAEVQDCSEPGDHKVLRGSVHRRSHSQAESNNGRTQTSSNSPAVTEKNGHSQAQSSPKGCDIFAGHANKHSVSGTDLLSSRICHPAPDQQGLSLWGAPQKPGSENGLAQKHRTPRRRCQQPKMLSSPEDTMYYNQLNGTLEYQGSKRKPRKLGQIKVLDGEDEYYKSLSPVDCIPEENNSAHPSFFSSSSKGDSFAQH", "details": "MYO3B"}, "[28]": {"biological_target": "T28, 371 kinases (kinase named in each endpoint) (Homo sapiens, UniProt P12931)", "T28 construct": "purchased Reaction Biology", "details": "C-SRC"}, "[29]": {"biological_target": "T29, 371 kinases (kinase named in each endpoint) (Homo sapiens, UniProt P06213)", "T29 construct": "purchased Reaction Biology", "details": "IR"}, "[30]": {"biological_target": "T30, 371 kinases (kinase named in each endpoint) (Homo sapiens, UniProt P49137)", "T30 construct": "purchased Reaction Biology", "details": "MAPKAPK2"}, "[31]": {"biological_target": "T31, 371 kinases (kinase named in each endpoint) (Homo sapiens, UniProt O96017)", "T31 construct": "purchased Reaction Biology", "details": "CHK2"}, "[32]": {"biological_target": "T32, 371 kinases (kinase named in each endpoint) (Homo sapiens, UniProt Q9H093)", "T32 construct": "purchased Reaction Biology", "details": "SNARK/NUAK2"}, "[33]": {"biological_target": "T33, 371 kinases (kinase named in each endpoint) (Homo sapiens, UniProt Q8IWQ3)", "T33 construct": "purchased Reaction Biology", "details": "BRSK2"}, "[34]": {"biological_target": "T34, 371 kinases (kinase named in each endpoint) (Homo sapiens, UniProt P25098)", "T34 construct": "purchased Reaction Biology", "details": "GRK2"}, "[35]": {"biological_target": "T35, 371 kinases (kinase named in each endpoint) (Homo sapiens, UniProt P54760)", "T35 construct": "purchased Reaction Biology", "details": "EPHB4"}, "[36]": {"biological_target": "T36, 371 kinases (kinase named in each endpoint) (Homo sapiens, UniProt O00444)", "T36 construct": "purchased Reaction Biology", "details": "PLK4/SAK"}}, "data": [{"smiles": "O=C(O)c1cc(C(F)(F)F)ccc1NCCc1c[nH]c2cc(Br)ccc12", "note": "[Compound 5, 2-((2-(6-Bromo-1H-indol-3-yl)ethyl)amino)−5-(trifluoromethyl)benzoic Acid]", "values": [{"measurement": "activity at 10 µM", "setting": "[1]", "result": "27.5 ± 6.5", "unit": "%"}, {"measurement": "activity at 10 µM", "setting": "[2]", "result": "94.3 ± 0.5", "unit": "%"}, {"measurement": "activity at 10 µM", "setting": "[3]", "result": "103.5 ± 0.1", "unit": "%"}, {"measurement": "activity at 10 µM", "setting": "[4]", "result": "72 ± 2.8", "unit": "%"}, {"measurement": "activity at 10 µM", "setting": "[5]", "result": "79.9 ± 0.7", "unit": "%"}, {"measurement": "activity at 10 µM", "setting": "[6]", "result": "156 ± 1.8", "unit": "%"}, {"measurement": "activity at 10 µM", "setting": "[7]", "result": "85.1 ± 4.1", "unit": "%"}, {"measurement": "activity at 10 µM", "setting": "[8]", "result": "76.2 ± 2.6", "unit": "%"}, {"measurement": "activity at 10 µM", "setting": "[9]", "result": "93.3 ± 1.1", "unit": "%"}, {"measurement": "activity at 10 µM", "setting": "[10]", "result": "90.7 ± 1.5", "unit": "%"}, {"measurement": "activity at 10 µM", "setting": "[11]", "result": "101 ± 1.8", "unit": "%"}, {"measurement": "activity at 10 µM", "setting": "[12]", "result": "91 ± 0.4", "unit": "%"}, {"measurement": "activity at 10 µM", "setting": "[13]", "result": "20.6 ± 1", "unit": "%"}, {"measurement": "activity at 10 µM", "setting": "[14]", "result": "84.5 ± 2.5", "unit": "%"}, {"measurement": "activity at 10 µM", "setting": "[15]", "result": "96.8 ± 0.8", "unit": "%"}, {"measurement": "activity at 10 µM", "setting": "[16]", "result": "92.7 ± 3.3", "unit": "%"}, {"measurement": "activity at 10 µM", "setting": "[17]", "result": 95.1, "unit": "%"}, {"measurement": "activity at 10 µM", "setting": "[18]", "result": "88 ± 0.7", "unit": "%"}, {"measurement": "activity at 10 µM", "setting": "[19]", "result": "40.8 ± 2.3", "unit": "%"}, {"measurement": "activity at 10 µM", "setting": "[20]", "result": "82.8 ± 2.2", "unit": "%"}, {"measurement": "activity at 10 µM", "setting": "[21]; CDK9/CYCLIN K", "result": "88.6 ± 0.7", "unit": "%"}, {"measurement": "activity at 10 µM", "setting": "[21]; CDK9/CYCLIN T1", "result": "81.5 ± 1.5", "unit": "%"}, {"measurement": "activity at 10 µM", "setting": "[21]; CDK9/CYCLIN T2", "result": "84.5 ± 0.4", "unit": "%"}, {"measurement": "activity at 10 µM", "setting": "[22]", "result": "114 ± 1.5", "unit": "%"}, {"measurement": "activity at 10 µM", "setting": "[23]", "result": "96.2 ± 1.7", "unit": "%"}, {"measurement": "activity at 10 µM", "setting": "[24]", "result": "52.1 ± 1.5", "unit": "%"}, {"measurement": "activity at 10 µM", "setting": "[25]", "result": "104 ± 2.4", "unit": "%"}, {"measurement": "activity at 10 µM", "setting": "[26]", "result": "96.2 ± 1", "unit": "%"}, {"measurement": "activity at 10 µM", "setting": "[27]", "result": "97.8 ± 1.5", "unit": "%"}, {"measurement": "activity at 10 µM", "setting": "[28]", "result": "95.1 ± 0.2", "unit": "%"}, {"measurement": "activity at 10 µM", "setting": "[29]", "result": "64.7 ± 1.1", "unit": "%"}, {"measurement": "activity at 10 µM", "setting": "[30]", "result": "95.2 ± 1.8", "unit": "%"}, {"measurement": "activity at 10 µM", "setting": "[31]", "result": "90.2 ± 1.5", "unit": "%"}, {"measurement": "activity at 10 µM", "setting": "[32]", "result": "87.7 ± 2.3", "unit": "%"}, {"measurement": "activity at 10 µM", "setting": "[33]", "result": "79.5 ± 0.8", "unit": "%"}, {"measurement": "activity at 10 µM", "setting": "[34]", "result": "96.5 ± 0.4", "unit": "%"}, {"measurement": "activity at 10 µM", "setting": "[35]", "result": "91.7 ± 0.5", "unit": "%"}, {"measurement": "activity at 10 µM", "setting": "[36]", "result": "91.2 ± 1.2", "unit": "%"}]}]}
